Laboratory results from US20080248040A1, “Nucleic Acid Molecules Encoding Novel Human Low-Voltage Activated Calcium Channel Proteins, Designed-Alpha 1I-1 and Alpha 1I-2, Encoded Proteins and Methods of Use Thereof” (priority 2003, published 2008).

Key:
[1] = tested on: T-type currents in thalamic (ventrobasal complex) neurons; conditions: physiologically relevant doses; Coulter et al. 1989; cited from earlier work
[2] = tested on: T-type Ca^2+ current in DRG neurons; conditions: freshly dissected DRG neurons of adult rats; Todorovic and Lingle 1998; cited from earlier work
[3] = molecular target: T1, human calcium channel α1I subunit (α1I channel) (Homo sapiens, UniProt Q9P0X4, I1040V); assay: Calcium influx measured by FLIPR in B21 cells; format: cell-based; conditions: for IC50: B21 cell induced by 0.1 uM tetracycline, mean ± S.E., n=3, read-out: IC50 for inhibition of calcium influx
T1 construct: expressed in transfected cells
Description: Intracellular calcium concentration was monitored by the FLIPR™ technique (Molecular Devices, Sunnyvale, Calif.). Briefly, the cells were seeded into black 96 well plates with clear bottoms at a density of 35,000 cells/well and cultured for 5 hr.

[4] = molecular target: α1I T-type calcium channel (Homo sapiens, UniProt Q9P0X4, I1040V); assay: Whole-cell patch clamp (voltage-clamp) recordings on the B21 cell line
α1I T-type calcium channel, sequence (Q9P0X4 1-1981 isoform Q9P0X4-3 I1005V): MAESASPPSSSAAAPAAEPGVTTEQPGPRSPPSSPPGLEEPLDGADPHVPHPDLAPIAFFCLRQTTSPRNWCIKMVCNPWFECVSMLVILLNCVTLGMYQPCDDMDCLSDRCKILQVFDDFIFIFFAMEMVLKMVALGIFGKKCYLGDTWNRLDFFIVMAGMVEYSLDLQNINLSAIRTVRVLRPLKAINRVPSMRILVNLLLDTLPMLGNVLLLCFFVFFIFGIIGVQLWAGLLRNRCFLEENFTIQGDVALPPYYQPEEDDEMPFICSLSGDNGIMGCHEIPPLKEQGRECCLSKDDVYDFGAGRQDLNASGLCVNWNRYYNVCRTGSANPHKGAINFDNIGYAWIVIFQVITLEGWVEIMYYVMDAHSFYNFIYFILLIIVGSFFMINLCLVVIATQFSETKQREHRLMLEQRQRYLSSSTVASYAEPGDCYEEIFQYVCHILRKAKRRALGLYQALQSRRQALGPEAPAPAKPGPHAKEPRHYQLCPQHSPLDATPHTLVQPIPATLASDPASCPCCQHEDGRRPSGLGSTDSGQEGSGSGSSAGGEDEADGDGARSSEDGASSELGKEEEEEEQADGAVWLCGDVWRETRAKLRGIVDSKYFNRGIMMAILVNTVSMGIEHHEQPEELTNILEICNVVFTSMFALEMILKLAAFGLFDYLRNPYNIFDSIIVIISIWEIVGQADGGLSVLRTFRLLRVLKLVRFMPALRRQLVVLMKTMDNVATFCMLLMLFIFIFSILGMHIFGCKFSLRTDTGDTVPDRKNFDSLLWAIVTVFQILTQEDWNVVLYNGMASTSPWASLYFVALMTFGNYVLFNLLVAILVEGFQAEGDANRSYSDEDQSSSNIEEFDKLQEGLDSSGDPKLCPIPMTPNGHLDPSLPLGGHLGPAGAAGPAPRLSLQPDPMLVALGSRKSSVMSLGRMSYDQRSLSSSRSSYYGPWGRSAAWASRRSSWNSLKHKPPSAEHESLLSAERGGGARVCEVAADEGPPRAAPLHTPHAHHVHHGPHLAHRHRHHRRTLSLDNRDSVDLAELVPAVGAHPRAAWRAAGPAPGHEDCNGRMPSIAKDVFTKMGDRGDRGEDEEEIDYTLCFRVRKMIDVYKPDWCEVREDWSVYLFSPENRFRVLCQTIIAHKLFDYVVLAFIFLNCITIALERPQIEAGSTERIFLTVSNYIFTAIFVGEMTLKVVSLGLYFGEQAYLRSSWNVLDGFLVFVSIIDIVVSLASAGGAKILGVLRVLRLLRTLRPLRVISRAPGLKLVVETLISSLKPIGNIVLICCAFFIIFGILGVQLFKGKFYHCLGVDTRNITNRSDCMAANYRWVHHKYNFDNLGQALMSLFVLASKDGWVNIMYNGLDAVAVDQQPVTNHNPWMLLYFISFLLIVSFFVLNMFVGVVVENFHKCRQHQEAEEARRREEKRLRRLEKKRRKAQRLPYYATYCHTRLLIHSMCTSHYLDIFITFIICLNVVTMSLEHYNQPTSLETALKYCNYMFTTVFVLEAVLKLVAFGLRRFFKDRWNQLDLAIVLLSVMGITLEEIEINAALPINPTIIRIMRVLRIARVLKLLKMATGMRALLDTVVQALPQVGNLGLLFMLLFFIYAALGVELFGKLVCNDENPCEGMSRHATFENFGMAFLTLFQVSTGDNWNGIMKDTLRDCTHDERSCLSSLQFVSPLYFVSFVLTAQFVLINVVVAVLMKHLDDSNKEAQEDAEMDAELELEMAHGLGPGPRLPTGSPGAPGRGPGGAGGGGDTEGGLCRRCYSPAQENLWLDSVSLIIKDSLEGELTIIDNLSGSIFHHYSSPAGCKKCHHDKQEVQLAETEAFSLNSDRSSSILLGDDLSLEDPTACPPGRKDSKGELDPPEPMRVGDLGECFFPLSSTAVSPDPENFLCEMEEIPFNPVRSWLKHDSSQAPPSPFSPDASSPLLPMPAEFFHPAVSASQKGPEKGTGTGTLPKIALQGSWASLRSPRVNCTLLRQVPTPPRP

T1 sequence (Q9P0X4 1-1981 isoform Q9P0X4-3 I1005V): as above

CCC1(C)CC(=O)NC1=O (centres unmarked) [ethosuximide]
effect on T-type currents in thalamic neurons (in words) [1]: partially depress
effect on T-type Ca^2+ current in DRG neurons (in words) [2]: fully block

[Ca+2] [Ca^2+]
EC50 ([3]; B21 cells induced by 0.1 μM tetracycline, read-out: EC50 of Ca^2+ influx after Ca^2+ addition): 1000 µM

COCCOC(=O)C1=C(C)NC(C)=C(C(=O)OC(C)C)C1c1cccc([N+](=O)[O-])c1 (centres unmarked) [Nimodipine]
IC50 [3]: 9.51 ± 0.788 µM

CC1(C)OC(=O)NC1=O [dimethadione]
effect on T-type currents in thalamic neurons (in words) [1]: partially depress

O=c1[nH]c2ccccc2n1C1CCN(CCCC(c2ccc(F)cc2)c2ccc(F)cc2)CC1 [Pimozide]
% Inhibition (Ave ± SEM) of peak calcium current ([4]; 100 nM antagonist, −100 mV holding potential): 32 ± 2%
potency estimated from few doses ([4]; read-out: Est IC50): 0.216 µM
IC50 [3]: 1 ± 0.109 µM
